Measured values reported in US20220195384A1, “COMPOSITION FOR PROMOTING PRODUCTION OF STEM CELL-DERIVED EXOSOMES AND INCREASING STEMNESS” (BREXOGEN INC., priority 2019, published 2022).

Legend:
Assay type in all cases: cell-based
[1] = test system: primary umbilical cord-derived mesenchymal stem cells; test: Content of exosomal protein (Bradford analysis, 595 nm); conditions: for Exosomal protein, yield per 10^6 cells: then 72 h exosome-free FBS medium, non-treated 2.0
Description: (§1) In a culture medium [high glucose DMEM (Gibco, Cat no. 11995-065); 10% fetal bovine serum (HyClone), 1% MEM non-essential amino acids solution (100×) (Gibco, Cat no. 11140-050)] containing 20 nM of exendin-4, primary umbilical cord-derived mesenchymal stem cells (ATCC No. PCS-500-010; Lot No. 63822428) were cultured for one week.
(§2) After completion of culturing, the mesenchymal stem cells pretreated with exendin-4 were washed and additionally cultured for 72 hours in a culture medium supplemented with 10% fetal bovine serum (FBS) free of exosomes. The reason of employing exosome-free FBS was to prevent FBS-derived exosomes other than those secreted from the cells from being incorporated because generally used FBS contained a large amount of exosomes derived from bovine serum.
(§3) After 72 hours of culturing, the culture medium in which the pretreated mesenchymal stem cells were cultured was taken and centrifuged at 300×g for 10 min to remove residual cells and cell debris. The supernatant was filtered through a 0.22 μm filter, followed by centrifugation at 10,000×g and 4° C. for 70 min in a high-speed centrifuge. The supernatant thus obtained was subjected again to ultracentrifugation at 100,000×g and 4° C. for 90 min. The exosomes obtained as a pellet were diluted in PBS (phosphate buffered saline) before use in the following experiments.
(§4) In a culture medium [high glucose DMEM (Gibco, Cat no. 11995-065); 10% fetal bovine serum (HyClone), 1% MEM non-essential amino acids solution (100×) (Gibco, Cat no. 11140-050)] containing 10 nM of PMA, primary umbilical cord-derived mesenchymal stem cells (ATCC No. PCS-500-010; Lot No. 63822428) were cultured for one week.
(§5) After completion of culturing, the mesenchymal stem cells pretreated with PMA were washed and additionally cultured for 72 hours in a culture medium supplemented with 10% fetal bovine serum (FBS) free of exosomes. The reason of employing exosome-free FBS was to prevent FBS-derived exosomes other than those secreted from the cells from being incorporated because generally used FBS contained a large amount of exosomes derived from bovine serum.
(§6) In a culture medium [high glucose DMEM (Gibco, Cat no. 11995-065); 10% fetal bovine serum (HyClone), 1% MEM non-essential amino acids solution (100×) (Gibco, Cat no. 11140-050)] containing 10 ng/mL interferon-γ, primary umbilical cord-derived mesenchymal stem cells (ATCC No. PCS-500-010; Lot No. 63822428) were cultured for one week.
(§7) After completion of culturing, the mesenchymal stem cells pretreated with interferon-γ were washed and additionally cultured for 72 hours in a culture medium supplemented with 10% fetal bovine serum (FBS) free of exosomes. The reason of employing exosome-free FBS was to prevent FBS-derived exosomes other than those secreted from the cells from being incorporated because generally used FBS contained a large amount of exosomes derived from bovine serum.
(§8) In a culture medium [high glucose DMEM (Gibco, Cat no. 11995-065); 10% fetal bovine serum (HyClone), 1% MEM non-essential amino acids solution (100×) (Gibco, Cat no. 11140-050)] containing 10 μM of tetrandrine, primary umbilical cord-derived mesenchymal stem cells (ATCC No. PCS-500-010; Lot No. 63822428) were cultured for one week.
(§9) After completion of culturing, the mesenchymal stem cells pretreated with tetrandrine were washed and additionally cultured for 72 hours in a culture medium supplemented with 10% fetal bovine serum (FBS) free of exosomes. The reason of employing exosome-free FBS was to prevent FBS-derived exosomes other than those secreted from the cells from being incorporated because generally used FBS contained a large amount of exosomes derived from bovine serum. […]

[2] = test system: primary umbilical cord-derived mesenchymal stem cells; test: Number of exosomes by nanoparticle tracking assay (NanoSight NS300); conditions: for No. of exosome particles, yield per 10^6 cells: then 72 h exosome-free FBS medium
Description: as §1, §2, §3, §4, §5, §6, §7, §8, §9

[3] = test system: primary umbilical cord-derived mesenchymal stem cells; test: Stem cell stemness: colony formation (CFU-F, crystal violet) after pretreatment; conditions: for colonies formed (each 50 or more cells): 1,000 cells/dish, 21 days; for CFU-F increase: vs non-treated
Description: as §1, §4, §6, §8
(§10) In a culture medium [high glucose DMEM (Gibco, Cat no. 11995-065); 10% fetal bovine serum (HyClone), 1% MEM non-essential amino acids solution (100×) (Gibco, Cat no. 11140-050)] containing 10 μg/mL hyaluronic acid, primary umbilical cord-derived mesenchymal stem cells (ATCC No. PCS-500-010; Lot No. 63822428) were cultured for one week.
(§11) In a culture medium [high glucose DMEM (Gibco, Cat no. 11995-065); 10% fetal bovine serum (HyClone), 1% MEM non-essential amino acids solution (100×) (Gibco, Cat no. 11140-050)] containing 30 nM of substance P, primary umbilical cord-derived mesenchymal stem cells (ATCC No. PCS-500-010; Lot No. 63822428) were cultured for one week.
(§12) In a culture medium [high glucose DMEM (Gibco, Cat no. 11995-065); 10% fetal bovine serum (HyClone), 1% MEM non-essential amino acids solution (100×) (Gibco, Cat no. 11140-050)] containing 10 nM of resveratrol, primary umbilical cord-derived mesenchymal stem cells (ATCC No. PCS-500-010; Lot No. 63822428) were cultured for one week.
(§13) In a culture medium [high glucose DMEM (Gibco, Cat no. 11995-065); 10% fetal bovine serum (HyClone), 1% MEM non-essential amino acids solution (100×) (Gibco, Cat no. 11140-050)] containing 10 μM of lanifibranor, primary umbilical cord-derived mesenchymal stem cells (ATCC No. PCS-500-010; Lot No. 63822428) were cultured for one week.
Mesenchymal stem cells and the exendin-4-pretreated mesenchymal stem cells of the Example were each seeded at a density of 1,000 cells/dish into 100-mm cell culture dishes containing […] of a culture medium [high glucose DMEM (Gibco, Cat no. 11995-065), 10% fetal bovine serum (HyClone), 1% MEM non-essential amino acids solution (100×) (Gibco, Cat no. 11140-050)] per dish and cultured for 21 days. The cell-attached dishes were washed twice with PBS, followed by fixation with 95% methanol at room temperature for about 2 min. The fixed cells were washed three times with PBS and stained with 0.5% crystal violet [(sigma, C-3886, USA) […], methanol 100 ml] for 5 min. After water washing and drying at room temperature, colonies, each composed of 50 or more cells, were counted for comparison.
Mesenchymal stem cells and the PMA-pretreated mesenchymal stem cells of the Example were each seeded at a density of 1,000 cells/dish into 100-mm cell culture dishes containing […] of a culture medium [high glucose DMEM (Gibco, Cat no. 11995-065), 10% fetal bovine serum (HyClone), 1% MEM non-essential amino acids solution (100×) (Gibco, Cat no. 11140-050)] per dish and cultured for 21 days. The cell-attached dishes were washed twice with PBS, followed by fixation with 95% methanol at room temperature for about 2 min. […]

[4] = test system: primary umbilical cord-derived mesenchymal stem cells; test: Stem cell proliferation (CCK, absorbance 450 nm) after pretreatment; conditions: 24 h culture, CCK 4 h
Description: as §1, §4, §6, §8, §10, §11, §12, §13
(§14) Mesenchymal stem cells and the exendin-4-pretreated mesenchymal stem cells of the Example were each seeded at a density of 3,000 cells/well into 96-well plates containing 100 μL of a culture medium [high glucose DMEM (Gibco, Cat no. 11995-065), 10% fetal bovine serum (HyClone), 1% MEM non-essential amino acids solution (100×) (Gibco, Cat no. 11140-050)] per well and cultured for 24 hours in a CO2 incubator. Then, CCK solution (10 μL/well) was added, and incubation was continued for 4 hours in the CO2 incubator, followed by reading absorbance at a wavelength of 450 nm (420-480 nm) to determine proliferation.
as §14, with “PMA-pretreated” for “exendin-4-pretreated”, “proliferation. […]” for “proliferation.”

[5] = test system: primary umbilical cord-derived mesenchymal stem cells; test: Content of exosomal RNA (NanoDrop); conditions: for Exosomal RNA, yield per 10^6 cells: then 72 h exosome-free FBS medium
Description: as §1, §2, §3, §4, §5, §6, §7, §8, §9

[6] = 10 nM PMA pretreatment one week
[7] = 10 μM lanifibranor pretreatment one week
[8] = 10 nM resveratrol pretreatment one week
[9] = 10 μM tetrandrine pretreatment one week

SMILES: CCCCCCCCCCCCCC(=O)O[C@@H]1[C@@H](C)[C@@]2(O)[C@@H](C=C(CO)C[C@]3(O)C(=O)C(C)=C[C@@H]23)[C@@H]2C(C)(C)[C@]12OC(C)=O [PMA, phorbol 12-myristate 13-acetate]
- fold greater exosomal proteins than non-treated mesenchymal stem cells [1, 6]: about 5 fold
- Exosomal protein, yield per 10^6 cells [1, 6]: 10.0 ug
- fold more exosomes than non-treated mesenchymal stem cells [2, 6]: about 5.2 fold
- No. of exosome particles, yield per 10^6 cells ([2]; 10 nM PMA pretreatment one week, non-treated 2.3): 11.90 10^9
- colonies formed (each 50 or more cells) ([3]; 10 nM PMA pretreatment one week, non-treated 28.6): 285.7 colonies
- CFU-F increase [3, 6]: about 996.5%
- increase in proliferation relative to non-treated mesenchymal stem cells [4, 6]: about 220%
- proliferation ratio relative to non-treated mesenchymal stem cells (1) [4, 6]: 2.2
- fold greater exosomal RNA than non-treated mesenchymal stem cells [5, 6]: about 4 fold
- Exosomal RNA, yield per 10^6 cells ([5]; 10 nM PMA pretreatment one week, non-treated 31.0): 125.0 ng

SMILES: O=C(O)CCCc1cc2cc(Cl)ccc2n1S(=O)(=O)c1ccc2ncsc2c1 [lanifibranor]
- fold greater exosomal proteins than non-treated mesenchymal stem cells [1, 7]: about 4.6 fold
- Exosomal protein, yield per 10^6 cells [1, 7]: 9.2 ug
- fold more exosomes than non-treated mesenchymal stem cells [2, 7]: about 4.95 fold
- No. of exosome particles, yield per 10^6 cells ([2]; 10 μM lanifibranor pretreatment one week, non-treated 2.30): 11.4 10^9
- colonies formed (each 50 or more cells) ([3]; 10 μM lanifibranor pretreatment one week, non-treated 40): 56.7 colonies
- CFU-F increase [3, 7]: about 142%
- increase in proliferation relative to non-treated mesenchymal stem cells [4, 7]: about 181%
- proliferation ratio relative to non-treated mesenchymal stem cells (1) [4, 7]: 1.81
- fold greater exosomal RNA than non-treated mesenchymal stem cells [5, 7]: about 4.1 fold
- Exosomal RNA, yield per 10^6 cells ([5]; 10 μM lanifibranor pretreatment one week, non-treated 27.00): 110.34 ng

SMILES: Oc1ccc(C=Cc2cc(O)cc(O)c2)cc1 [resveratrol]
- fold greater exosomal proteins than non-treated mesenchymal stem cells [1, 8]: about 5.4 fold
- Exosomal protein, yield per 10^6 cells [1, 8]: 10.78 ug
- fold more exosomes than non-treated mesenchymal stem cells [2, 8]: about 5.2 fold
- No. of exosome particles, yield per 10^6 cells ([2]; 10 nM resveratrol pretreatment one week, non-treated 2.3): 11.9 10^9
- colonies formed (each 50 or more cells) ([3]; 10 nM resveratrol pretreatment one week, non-treated 28.6): 311 colonies
- CFU-F increase [3, 8]: about 1,087%
- increase in proliferation relative to non-treated mesenchymal stem cells [4, 8]: about 322%
- proliferation ratio relative to non-treated mesenchymal stem cells (1) [4, 8]: 3.22
- fold greater exosomal RNA than non-treated mesenchymal stem cells [5, 8]: about 4.7 fold
- Exosomal RNA, yield per 10^6 cells ([5]; 10 nM resveratrol pretreatment one week, non-treated 31.0): 145.15 ng

SMILES: COc1ccc2cc1Oc1ccc(cc1)C[C@H]1c3cc(c(OC)cc3CCN1C)Oc1c(OC)c(OC)cc3c1[C@H](C2)N(C)CC3 [tetrandrine]
- fold greater exosomal proteins than non-treated mesenchymal stem cells [1, 9]: about 4.5 fold
- Exosomal protein, yield per 10^6 cells [1, 9]: 9.42 ug
- fold more exosomes than non-treated mesenchymal stem cells [2, 9]: about 4.3 fold
- No. of exosome particles, yield per 10^6 cells ([2]; 10 μM tetrandrine pretreatment one week, non-treated 2.3): 9.84 10^9
- colonies formed (each 50 or more cells) ([3]; 10 μM tetrandrine pretreatment one week, non-treated 28.7): 121.3 colonies
- CFU-F increase [3, 9]: about 423%
- increase in proliferation relative to non-treated mesenchymal stem cells [4, 9]: about 260%
- proliferation ratio relative to non-treated mesenchymal stem cells (1) [4, 9]: 2.6
- fold greater exosomal RNA than non-treated mesenchymal stem cells [5, 9]: about 4.4 fold
- Exosomal RNA, yield per 10^6 cells ([5]; 10 μM tetrandrine pretreatment one week, non-treated 31.0): 136.0 ng
